The values that follow come from patent US20250195511A1, “INDAZOLE DERIVATIVES USEFUL AS INHIBITORS OF NOD-LIKE RECEPTOR PROTEIN 3” (Merck Sharp & Dohme LLC, priority 2023, published 2025).

For this experiment, the system named is NLRP3 inflammasome. As to the kind of experiment: NLRP3 inflammasome activation: ASC-SPECK formation in gramicidin-stimulated THP-1 cells. It is filed as cell-based. Particulars: PMA-treated human monocytic THP-1 cells, compound 1 h before 12.5 μg/ml gramicidin, 3-hour treatment. The gist of the method: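 Undifferentiated human THP-1 cells primed overnight with 10 ng/ml PMA, then given compounds 1 h before 12.5 μg/ml gramicidin for 3 h at 37° C in RPMI with 0.01% BSA. Fixed cells immunostained for ASC with DRAQ5 nuclear counterstain; DRAQ5-positive cells with ASC specks counted by high-content imaging; EC50 from curve fitting.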

Where [1] appears, read: inhibition of ASC SPECK formation.
Where [2] appears, read: Homo sapiens, THP-1, inhibition of ASC SPECK formation.

As for `Cc1cc(C(F)(F)F)cc(O)c1-c1cnc2cn(C3CCOCC3(C)C)nc2n1` (single isomer, unassigned) [Example 97, (R or S)-2-(2-(3,3-dimethyltetrahydro-2H-pyran-4-yl)-2H-pyrazolo[3,4-b]pyrazin-6-yl)-3-methyl-5-(trifluoromethyl)phenol], under setting [1], the EC50 came out at 683 nM.

On to `Cc1cc(C(F)(F)F)cc(O)c1-c1cnc2cn(C3CCOCC3(C)C)nc2n1` (single isomer, unassigned) [Example 98, (S or R)-2-(2-(3,3-dimethyltetrahydro-2H-pyran-4-yl)-2H-pyrazolo[3,4-b]pyrazin-6-yl)-3-methyl-5-(trifluoromethyl)phenol], for which the EC50 under setting [1] is 237 nM.

For `Cc1cc(C(F)(F)F)cc(O)c1-c1cnc2cn(C3CCOCC34CC4)nc2n1` (single isomer, unassigned) [Example 99, (R or S)-2-(2-(5-oxaspiro[2.5]octan-8-yl)-2H-pyrazolo[3,4-b]pyrazin-6-yl)-3-methyl-5-(trifluoromethyl)phenol], the EC50 under setting [1] was 580 nM.

In the case of `Cc1cc(C(F)(F)F)cc(O)c1-c1cnc2cn(C3CCOCC34CC4)nc2n1` (single isomer, unassigned) [Example 100, (S or R)-2-(2-(5-oxaspiro[2.5]octan-8-yl)-2H-pyrazolo[3,4-b]pyrazin-6-yl)-3-methyl-5-(trifluoromethyl)phenol], the EC50 under setting [1] was determined as 169 nM.

On to `Cc1cc(C(F)(F)F)cc(O)c1-c1cnc2cn([C@H]3CCOC[C@H]3F)nc2n1` (single isomer, unassigned) [Example 101, 2-(2-((3S,4S or 3R,4R)-3-fluorotetrahydro-2H-pyran-4-yl)-2H-pyrazolo[3,4-b]pyrazin-6-yl)-3-methyl-5-(trifluoromethyl)phenol], for which, under setting [1], the EC50 amounted to 117 nM.

Regarding `Cc1cc(C(F)(F)F)cc(O)c1-c1cnc2cn([C@H]3CCOC[C@H]3F)nc2n1` (single isomer, unassigned) [Example 102, 2-(2-((3R,4R or 3S,4S)-3-fluorotetrahydro-2H-pyran-4-yl)-2H-pyrazolo[3,4-b]pyrazin-6-yl)-3-methyl-5-(trifluoromethyl)phenol], the EC50 under setting [1] is 314 nM.

With `Cc1cc(C(F)(F)F)cc(O)c1-c1cnc2cn([C@H]3CCOC[C@@H]3F)nc2n1` (single isomer, unassigned) [Example 103, 2-(2-((3R,4S or 3S,4R)-3-fluorotetrahydro-2H-pyran-4-yl)-2H-pyrazolo[3,4-b]pyrazin-6-yl)-3-methyl-5-(trifluoromethyl)phenol], the EC50 under setting [2] stood at 321 nM.

`Cc1cc(C(F)(F)F)cc(O)c1-c1cnc2cn([C@H]3CCOC[C@@H]3F)nc2n1` (single isomer, unassigned) [Example 104, 2-(2-((3S,4R or 3R,4S)-3-fluorotetrahydro-2H-pyran-4-yl)-2H-pyrazolo[3,4-b]pyrazin-6-yl)-3-methyl-5-(trifluoromethyl)phenol]: the EC50 under setting [1] turned out to be 291 nM.

For `Cc1cc(C(F)(F)F)cc(O)c1-c1cnc2cn(C3CCOCC3(F)F)nc2n1` (single isomer, unassigned) [Example 105, (R or S)-2-(2-(3,3-difluorotetrahydro-2H-pyran-4-yl)-2H-pyrazolo[3,4-b]pyrazin-6-yl)-3-methyl-5-(trifluoromethyl)phenol], the EC50 under setting [2] is 433 nM.

For `Cc1cc(C(F)(F)F)cc(O)c1-c1cnc2c(C)n(C3CCC(=O)N(C)C3)nc2n1` (single isomer, unassigned) [Example 106, (S or R)-5-(6-(2-hydroxy-6-methyl-4-(trifluoromethyl)phenyl)-3-methyl-2H-pyrazolo[3,4-b]pyrazin-2-yl)-1-methylpiperidin-2-one], the EC50 under setting [2] is 191 nM.

For the molecule `Cc1cc(C(F)(F)F)cc(O)c1-c1cnc2c(C)n(C3CCC(=O)NC3)nc2n1` (single isomer, unassigned) [Example 108, (R or S)-5-(6-(2-hydroxy-6-methyl-4-(trifluoromethyl)phenyl)-3-methyl-2H-pyrazolo[3,4-b]pyrazin-2-yl)piperidin-2-one], the EC50 under setting [1] was 66 nM.

In the case of `Cc1cc(C(F)(F)F)cc(O)c1-c1cnc2c(C)n(C3CCC(=O)NC3)nc2n1` (single isomer, unassigned) [Example 109, (S or R)-5-(6-(2-hydroxy-6-methyl-4-(trifluoromethyl)phenyl)-3-methyl-2H-pyrazolo[3,4-b]pyrazin-2-yl)piperidin-2-one], the EC50 under setting [1] was 279 nM.

For `Cc1nc2cn(C3CCC(=O)N(C)C3)nc2nc1-c1ccc(C(F)(F)F)cc1O` (single isomer, unassigned) [Example 111, (R or S)-5-(6-(2-hydroxy-4-(trifluoromethyl)phenyl)-5-methyl-2H-pyrazolo[3,4-b]pyrazin-2-yl)-1-methylpiperidin-2-one], under setting [1], the EC50 came out at 175 nM.

In the case of `Cc1nc2cn(C3CCC(=O)N(C)C3)nc2nc1-c1ccc(C(F)(F)F)cc1O` (single isomer, unassigned) [Example 112, (S or R)-5-(6-(2-hydroxy-4-(trifluoromethyl)phenyl)-5-methyl-2H-pyrazolo[3,4-b]pyrazin-2-yl)-1-methylpiperidin-2-one], under setting [1], the EC50 was 605 nM.

Take `CCOCOc1cc(C(F)(F)F)cc(C)c1-c1cnc2c([C@H](C)O)n(C[C@H]3CC(=O)N(C4CC4)C3)nc2n1` (single isomer, unassigned) [Example 113, (S or R)-1-cyclopropyl-4-((6-(2-(ethoxymethoxy)-6-methyl-4-(trifluoromethyl)phenyl)-3-((S or R)-1-hydroxyethyl)-2H-pyrazolo[3,4-b]pyrazin-2-yl)methyl)pyrrolidin-2-one]: the EC50 under setting [2] amounted to 649 nM.

Take `CCOCOc1cc(C(F)(F)F)cc(C)c1-c1cnc2c([C@@H](C)O)n(C[C@H]3CC(=O)N(C4CC4)C3)nc2n1` (single isomer, unassigned) [Example 114, (S or R)-1-cyclopropyl-4-((6-(2-(ethoxymethoxy)-6-methyl-4-(trifluoromethyl)phenyl)-3-((R or S)-1-hydroxyethyl)-2H-pyrazolo[3,4-b]pyrazin-2-yl)methyl)pyrrolidin-2-one]: the EC50 under setting [2] stood at 57 nM.

For the molecule `CCOCOc1cc(C(F)(F)F)cc(C)c1-c1cnc2c([C@@H](C)O)n(C[C@@H]3CC(=O)N(C4CC4)C3)nc2n1` (single isomer, unassigned) [Example 115, (R or S)-1-cyclopropyl-4-((6-(2-(ethoxymethoxy)-6-methyl-4-(trifluoromethyl)phenyl)-3-((R or S)-1-hydroxyethyl)-2H-pyrazolo[3,4-b]pyrazin-2-yl)methyl)pyrrolidin-2-one], under setting [2], the EC50 worked out at 287 nM.

As for `CCOCOc1cc(C(F)(F)F)cc(C)c1-c1cnc2c([C@H](C)O)n(C[C@@H]3CC(=O)N(C4CC4)C3)nc2n1` (single isomer, unassigned) [Example 116, (R or S)-1-cyclopropyl-4-((6-(2-(ethoxymethoxy)-6-methyl-4-(trifluoromethyl)phenyl)-3-((S or R)-1-hydroxyethyl)-2H-pyrazolo[3,4-b]pyrazin-2-yl)methyl)pyrrolidin-2-one], the EC50 under setting [2] was 28 nM.

Take `Cc1cc(C(F)(F)F)cc(O)c1-c1cnc2c(C(C)O)n(C3CCC(=O)N(C(C)C)C3)nc2n1` (single isomer, unassigned) [Example 117, (S or R)-5-(6-(2-hydroxy-6-methyl-4-(trifluoromethyl)phenyl)-3-((S or R)-1-hydroxyethyl)-2H-pyrazolo[3,4-b]pyrazin-2-yl)-1-isopropylpiperidin-2-one]: under setting [1], the EC50 came to 29 nM.

Take `Cc1cc(C(F)(F)F)cc(O)c1-c1cnc2c(C(C)O)n(C3CCC(=O)N(C(C)C)C3)nc2n1` (single isomer, unassigned) [Example 118, (R or S)-5-(6-(2-hydroxy-6-methyl-4-(trifluoromethyl)phenyl)-3-((S or R)-1-hydroxyethyl)-2H-pyrazolo[3,4-b]pyrazin-2-yl)-1-isopropylpiperidin-2-one]: under setting [1], the EC50 came to 26 nM.

Take `Cc1cc(C(F)(F)F)cc(O)c1-c1cnc2c(C(C)O)n(C3CCC(=O)N(C(C)C)C3)nc2n1` (single isomer, unassigned) [Example 119, (R or S)-5-(6-(2-hydroxy-6-methyl-4-(trifluoromethyl)phenyl)-3-((R or S)-1-hydroxyethyl)-2H-pyrazolo[3,4-b]pyrazin-2-yl)-1-isopropylpiperidin-2-one]: the EC50 under setting [1] was determined as 291 nM.

Regarding `Cc1cc(C(F)(F)F)cc(O)c1-c1cnc2c(C(C)O)n(C3CCC(=O)N(C(C)C)C3)nc2n1` (single isomer, unassigned) [Example 120, (S or R)-5-(6-(2-hydroxy-6-methyl-4-(trifluoromethyl)phenyl)-3-((R or S)-1-hydroxyethyl)-2H-pyrazolo[3,4-b]pyrazin-2-yl)-1-isopropylpiperidin-2-one], under setting [1], the EC50 came out at 3880 nM.

Consider `Cc1cc(C(F)(F)F)cc(O)c1-c1cnc2cn(C3CCOCC3)nc2n1` [Example 1, 3-methyl-2-(2-(tetrahydro-2H-pyran-4-yl)-2H-pyrazolo[3,4-b]pyrazin-6-yl)-5-(trifluoromethyl)phenol], for which the EC50 under setting [2] stood at 71 nM.

Consider `Cc1cc(C(F)(F)F)cc(O)c1-c1cnc2cn(C34CC(C3)S(=O)(=O)C4)nc2n1` [Example 2, 4-(6-(2-hydroxy-6-methyl-4-(trifluoromethyl)phenyl)-2H-pyrazolo[3,4-b]pyrazin-2-yl)-2-thiabicyclo[2.1.1]hexane 2,2-dioxide], for which the EC50 under setting [2] amounted to 50 nM.

For the molecule `Cc1cc(C(F)(F)F)cc(O)c1-c1cnc2cn([C@H]3CCC(=O)N(C)C3)nc2n1` [Example 5, (5S)-5-[6-[2-hydroxy-6-methyl-4-(trifluoromethyl)phenyl]pyrazolo[3,4-b]pyrazin-2-yl]-1-methyl-piperidin-2-one], the EC50 under setting [2] is 13 nM.

`Cc1cc(C(F)(F)F)cc(O)c1-c1cnc2cn(C[C@@H]3CCN(C)C3)nc2n1` [Example 6, (R)-3-methyl-2-(2-((1-methylpyrrolidin-3-yl)methyl)-2H-pyrazolo[3,4-b]pyrazin-6-yl)-5-(trifluoromethyl)phenol]: under setting [2], the 50% effective concentration (EC50) was determined as 35 nM.
